The text below walks through data of BindingDB's records for doi:10.3109/14756360903213481 (Brno University of Technology, 2010).

The target of one experiment is Acetylcholinesterase (Electrophorus electricus, UniProt O42275). Put plainly: Acetylcholinesterase Inhibition Assay. Particulars: pH 8; 30 °C. On the procedure: (§1) The assay was carried out according to the Ellman method [Ellman et al., Biochem. Pharmacol., 7:88-95], optimized for 96-well microplates using a Tecan Sunrise™ absorbance reader. […] For the blank, 50 μL of 0.26 U mL^−1 AChE was replaced by the same volume of 0.1 M phosphate buffer pH 8.0. In a typical assay, solutions of AChE, DTNB, and the compound to be tested, as well as the phosphate buffer, were mixed and incubated for 30 min at 30°C. Next, the reaction was started by the addition of ATCI solution. […] Reaction velocities were determined from the slopes of the linear portions of the graphs of time versus concentration of 5-thio-2-nitrobenzoate. All assays were done in triplicate.

The target in experiment [1] is Carboxylic ester hydrolase (Equus caballus, UniProt Q9N1N9). Put plainly: Acetylcholinesterase Inhibition Assay. Particulars: pH 8; 30 °C. On the procedure: as §1

For orientation: IC50 means the concentration that gives 50% inhibition.

Chain of Carboxylic ester hydrolase (Q9N1N9 whole entry): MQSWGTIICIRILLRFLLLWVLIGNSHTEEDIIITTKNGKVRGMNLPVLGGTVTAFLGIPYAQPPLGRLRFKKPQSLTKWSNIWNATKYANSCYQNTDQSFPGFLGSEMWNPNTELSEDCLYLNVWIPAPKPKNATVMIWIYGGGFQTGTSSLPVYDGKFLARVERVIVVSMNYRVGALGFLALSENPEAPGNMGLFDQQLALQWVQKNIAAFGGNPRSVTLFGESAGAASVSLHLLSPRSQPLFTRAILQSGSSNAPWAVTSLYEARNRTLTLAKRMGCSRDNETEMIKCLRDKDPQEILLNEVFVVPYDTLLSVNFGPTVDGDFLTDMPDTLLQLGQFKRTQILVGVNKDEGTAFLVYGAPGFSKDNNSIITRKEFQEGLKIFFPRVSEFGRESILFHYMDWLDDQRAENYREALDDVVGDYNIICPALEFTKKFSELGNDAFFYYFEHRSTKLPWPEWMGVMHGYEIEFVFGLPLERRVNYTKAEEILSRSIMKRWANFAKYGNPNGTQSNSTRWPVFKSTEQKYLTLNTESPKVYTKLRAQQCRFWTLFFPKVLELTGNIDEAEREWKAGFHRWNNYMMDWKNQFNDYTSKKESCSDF
Chain of Acetylcholinesterase (O42275 whole entry): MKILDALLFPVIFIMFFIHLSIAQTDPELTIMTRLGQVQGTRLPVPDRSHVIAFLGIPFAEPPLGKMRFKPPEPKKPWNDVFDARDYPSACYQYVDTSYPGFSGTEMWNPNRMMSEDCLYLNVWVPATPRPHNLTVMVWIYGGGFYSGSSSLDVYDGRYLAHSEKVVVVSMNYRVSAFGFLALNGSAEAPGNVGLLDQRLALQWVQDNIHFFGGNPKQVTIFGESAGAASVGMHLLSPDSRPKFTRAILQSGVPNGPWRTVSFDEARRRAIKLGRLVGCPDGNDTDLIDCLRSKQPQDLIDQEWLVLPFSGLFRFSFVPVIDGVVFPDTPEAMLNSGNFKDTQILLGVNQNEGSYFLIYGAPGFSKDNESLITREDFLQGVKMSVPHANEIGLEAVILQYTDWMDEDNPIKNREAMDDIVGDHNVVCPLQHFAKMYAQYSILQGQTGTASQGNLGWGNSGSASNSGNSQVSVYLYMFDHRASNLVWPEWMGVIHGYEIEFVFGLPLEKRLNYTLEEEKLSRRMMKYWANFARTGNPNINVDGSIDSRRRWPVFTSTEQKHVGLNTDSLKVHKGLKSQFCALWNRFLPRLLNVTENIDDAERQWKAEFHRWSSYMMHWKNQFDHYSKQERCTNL

In the case of `O=C1C(Cc2ccc(O)cc2)=C(Cc2ccc(O)cc2)C(=O)C1(c1ccc(O)cc1)C1(c2ccc(O)cc2)C(=O)C(Cc2ccc(O)cc2)=C(Cc2ccc(O)cc2)C1=O` [Nostotrebin 6], the IC50 turned out to be 5.5 µM against Acetylcholinesterase and 6.8 µM in experiment [1].
Regarding `COc1ccc2c3c1O[C@H]1C[C@@H](O)C=C[C@@]31CCN(C)C2` [galantamine], inhibition in experiment [1] was half-maximal at 23.3 µM (IC50).
